Experimental data published in US20170280720A1, “ARGININE […] INHIBITORS AND USES THEREOF” (EPIZYME, INC., priority 2014, published 2017).

Key:
[1] = test system: asymmetric di-methyl PABP1 in RKO cells; assay: In Cell Western (ICW) for asymmetric di-methyl PABP1 and DNA content in RKO cells; type: cell-based; conditions: In Cell Western
Text: RKO adherent cells were purchased from ATCC (American Type Culture Collection), Manassas, Va., USA. DMEM/Glutamax medium, penicillin-streptomycin, heat inactivated fetal bovine serum, 0.05% trypsin and D-PBS were purchased from Life Technologies, Grand Island, N.Y., USA. Odyssey blocking buffer, 800CW goat anti-rabbit IgG (H+L) antibody, and Licor Odyssey infrared scanner were purchased from Licor Biosciences, Lincoln, Nebr., USA. Mono-methyl arginine antibody was purchased from Cell Signaling Technology, Danvers, Mass., USA. Methanol was purchased from VWR, Franklin, Mass., USA. 10% Tween 20 was purchased from KPL, Inc., Gaithersburg, Md., USA. […] was purchased from Biostatus Limited, Leicestershire, UK. RKO adherent cells were maintained in growth medium (DMEM/Glutamax medium supplemented with 10% v/v heat inactivated fetal bovine serum and 100 units/mL penicillin-streptomycin) and cultured at 37° C. under 5% CO2. Cell Treatment, in Cell Western (ICW) for Detection of Asymmetric Di-Methyl PABP1 and DNA Content. RKO cells were seeded in assay medium at a concentration of 30,000 cells per mL to a poly-D-lysine coated 384 well culture plate (BD Biosciences 356697) with 50 μL per well. Compound (100 nL) from a 96-well source plate was added directly to 384 well cell plate. Plates were incubated at 37° C., 5% CO2 for 48 hours. After two days of incubation, plates were brought to room temperature outside of the incubator for ten minutes and blotted on paper towels to remove cell media. Cells were fixed for 20 minutes at room temperature by adding 50 μl of 8% PFA followed by aspiration of supernatant with the Biotek EL406 plate washer. Cells were then permeabilized by addition of 50 μL of ice cold 100% methanol directly to each well and incubated for 30 min at room temperature. After 30 min, plates were transferred to a Biotek EL406 plate washer and washed 2 times with 100 μL per well of wash buffer (1×PBS). Next 60 μL per well of Odyssey blocking buffer (Odyssey Buffer with 0.1% Tween 20 (v/v)) were added to each plate and incubated 1 hour at room temperature. Blocking buffer was removed and 20 μL per well of primary antibody was added (asymmetric-methyl PABP1) diluted 1:400 in Odyssey buffer with 0.1% Tween 20 (v/v)) and plates were incubated overnight (16 hours) at 4° C. Plates were washed 5 times with 100 μL per well of wash buffer. Next 20 μL per well of secondary antibody was added (1:800 800CW goat anti-rabbit IgG (H+L) antibody, 1:2000 DRAQS in Odyssey buffer with 0.1% Tween 20 (v/v)) and incubated for 1 hour at room temperature. The plates were washed 5 times with 100 μL per well wash buffer then 2 times with 100 μL per well of water. Plates were allowed to dry at room temperature then imaged on the Licor Odyssey machine which measures integrated intensity at 700 nm and 800 nm wavelengths. Both 700 and 800 channels were scanned. Calculations: First, the ratio for each well was determined by: Each plate included fourteen control wells of DMSO only treatment (minimum inhibition) as well as fourteen control wells for maximum inhibition treated with 20 μM of a reference compound. The average of the ratio values for each control type was calculated and used to determine the percent activation for each test well in the plate. Reference compound was serially diluted three-fold in DMSO for a total of nine test concentrations, beginning at 20 μM. Percent inhibition was determined and IC50 curves were generated using triplicate wells per concentration of compound.

Human CARM1 (PRMT4) = target: T1, Human CARM1 (PRMT4) (Homo sapiens, UniProt Q86X55); assay: CARM1 biochemical assay (3H-SAM Flashplate, peptide substrate); conditions: read-out: CARM1_ IC50
T1 construct: Flag-CARM1-His; made in house; host or cells: HEK 293F cells (BacMam baculovirus, pFastBacMam)
T1 sequence (Q86X55 2-585 isoform Q86X55-1): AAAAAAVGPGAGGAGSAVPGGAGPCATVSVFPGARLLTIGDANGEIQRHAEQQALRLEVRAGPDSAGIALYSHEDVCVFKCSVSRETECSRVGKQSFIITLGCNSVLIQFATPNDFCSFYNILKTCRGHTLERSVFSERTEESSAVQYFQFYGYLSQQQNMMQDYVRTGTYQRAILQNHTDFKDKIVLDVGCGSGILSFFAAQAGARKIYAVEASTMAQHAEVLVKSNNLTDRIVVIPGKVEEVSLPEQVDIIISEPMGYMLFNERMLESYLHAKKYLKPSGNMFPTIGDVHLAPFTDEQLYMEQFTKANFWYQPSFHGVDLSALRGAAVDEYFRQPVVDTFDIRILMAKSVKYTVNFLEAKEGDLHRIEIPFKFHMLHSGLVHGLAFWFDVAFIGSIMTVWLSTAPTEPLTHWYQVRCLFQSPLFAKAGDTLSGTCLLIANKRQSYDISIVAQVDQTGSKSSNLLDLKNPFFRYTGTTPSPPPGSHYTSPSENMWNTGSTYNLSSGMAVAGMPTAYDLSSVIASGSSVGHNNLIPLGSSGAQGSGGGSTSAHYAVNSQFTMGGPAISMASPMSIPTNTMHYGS
Text: (§1) S-adenosylmethionine (SAM), S-adenosylhomocysteine (SAH), bicine, Tween20, dimethylsulfoxide (DMSO), bovine skin gelatin (BSG), sodium butyrate and Tris(2-carboxyethyl)phosphine hydrochloride solution (TCEP) were purchased from Sigma-Aldrich at the highest level of purity possible. ^3H-SAM was purchase from American Radiolabeled Chemicals with a specific activity of 80 Ci/mmol. 384-well streptavidin Flashplates were purchased from PerkinElmer.
Peptide representative of human histone H3 residues 16-30 was synthesized with an N-terminal linker-affinity tag motif and a C-terminal amide cap by 21st Century Biochemicals. The peptide was purified by high-performance liquid chromatography (HPLC) to greater than 95% purity and confirmed by liquid chromatography mass spectrometry (LC-MS). The sequence was Biot-Ahx-[…]-amide and contained a monomethylated arginine at position 26 (SEQ ID NO.: 14).
Human CARM1 (PRMT4) (NM_199141.1) transcript clone was amplified from an HEK 293 cDNA library, incorporating a flanking 5′ sequence encoding a FLAG tag ([…]) (SEQ ID NO.: 6) fused directly to Ala 2 of CARM1 and 3′ sequence encoding a hexa His sequence ([…]) (SEQ ID NO.: 15) fused directly to Ser 608. The gene sequence encoding isoform1 containing a deletion of amino acids 539-561 was amplified subsequently and subcloned into pFastBacMam (Viva Biotech).
Recombinant baculovirus were generated according to Bac-to-Bac kit instructions (Life Technologies). […] Infections were carried out at 37° C. for 48 hours, harvested by centrifugation, and stored at −80° C. for purification.
Column was washed with 500 mM NaCl in buffer A and Flag-CARM1-His was eluted with 200 ug/ml FLAG peptide in buffer A. Pooled fractions were dialyzed in 20 mM Tris, 150 mM NaCl, 5% glycerol and 1 mM DTT, pH 7.8. The purity of recovered protein was 94.
General Procedure for CARM1 Enzyme Assays on Peptide Substrates.
The assays were all performed in a buffer consisting of 20 mM Bicine (pH=7.6), 1 mM TCEP, 0.005% BSG, and 0.002% Tween 20, prepared on the day of use. Compounds in 100% DMSO (1 ul) were spotted into a polypropylene 384-well V-bottom plates (Greiner) using a Platemate Plus outfitted with a 384-channel head (Thermo Scientific). DMSO (1 ul) was added to Columns 11, 12, 23, 24, rows A-H for the maximum signal control and 1 ul of SAH, a known product and inhibitor of CARM1, was added to columns 11, 12, 23, 24, rows I-P for the minimum signal control. A cocktail (40 ul) containing the CARM1 enzyme was added by Multidrop Combi (Thermo-Fisher). The compounds were allowed to incubate with CARM1 for 30 min at room temperature, then a cocktail (10 ul) containing ^3H-SAM and peptide was added to initiate the reaction (final volume=51 ul). The final concentrations of the components were as follows: CARM1 was 0.25 nM, ^3H-SAM was 30 nM, peptide was 250 nM, SAH in the minimum signal control wells was 1 mM, and the DMSO concentration was 2%. The assays were stopped by the addition of non-radiolabeled SAM (10 ul) to a final concentration of 300 uM, which dilutes the ^3H-SAM to a level where its incorporation into the peptide substrate is no longer detectable. 50 ul of the reaction in the 384-well polypropylene plate was then transferred to a 384-well Flashplate and the biotinylated peptides were allowed to bind to the streptavidin surface for at least 1 hour before being washed once with 0.1% Tween20 in a Biotek ELx405 plate washer. The plates were then read in a PerkinElmer TopCount plate reader to measure the quantity of ^3H-labeled peptide bound to the Flashplate surface, measured as disintegrations per minute (dpm) or alternatively, referred to as counts per minute (cpm).
Where dpm=disintegrations per minute, cmpd=signal in assay well, and min and max are the respective minimum and maximum signal controls.
Where top and bottom are the normally allowed to float, but may be fixed at 100 or 0 respectively in a 3-parameter fit. […]

human PRMT1 = target: T2, human PRMT1 (Homo sapiens, UniProt Q99873); assay: PRMT1 biochemical assay (3H-SAM Flashplate, peptide substrate); conditions: read-out: PRMT1_ IC50
T2 construct: GST-tagged PRMT1; made in house; host or cells: High Five insect cells (baculovirus, pFastBacI)
Text: as §1, with “(BSG),” for “(BSG), sodium butyrate”
Peptide representative of human histone H4 residues 36-50 was synthesized with an N-terminal linker-affinity tag motif and a C-terminal amide cap by 21st Century Biochemicals. The peptide was purified by high-performance liquid chromatography (HPLC) to greater than 95% purity and confirmed by liquid chromatography mass spectrometry (LC-MS). The sequence was Biot-Ahx-[…]-amide (SEQ ID NO.: 1).
Full-length human PRMT1 isoform 1 (NM_001536.5) transcript clone was amplified from an HEK 293 cDNA library, incorporating flanking 5′ sequence encoding a FLAG tag ([…]) (SEQ ID NO.: 2) fused directly to Met 1 of PRMT1. The amplified gene was subcloned into pFastBacI (Life Technologies) modified to encode an N-terminal GST tag and a TEV cleavage sequence ([…] […] […] […] QGGNS)(SEQ ID NO.: 3) fused to Asp of the Flag tag of PRMT1.
Recombinant baculovirus were generated according to Bac-to-Bac kit instructions (Life Technologies). Protein over-expression was accomplished by infecting exponentially growing High Five insect cell culture at 1.5×10^6 cell/ml with 1:100 ratio of virus. Infections were carried out at 27° C. for 48 hours, harvested by centrifugation, and stored at −80° C. for purification.
GST-tagged PRMT1 was eluted with 50 mM Tris, 2 mM glutathione, pH 7.8, dialysed in buffer A and concentrated to 1 mg/mL. The purity of recovered protein was 73%. Reference: Wasilko, D. J. and S. E. Lee: “TIPS: titerless infected-cells preservation and scale-up” Bioprocess J., 5 (2006), pp. 29-32.
General Procedure for PRMT1 Enzyme Assays on Peptide Substrates.
The assays were all performed in a buffer consisting of 20 mM Bicine (pH=7.6), 1 mM TCEP, 0.005% BSG, and 0.002% Tween 20, prepared on the day of use. Compounds in 100% DMSO (1 ul) were spotted into a polypropylene 384-well V-bottom plates (Greiner) using a Platemate Plus outfitted with a 384-channel head (Thermo Scientific). DMSO (1 ul) was added to Columns 11, 12, 23, 24, rows A-H for the maximum signal control and 1 ul of SAH, a known product and inhibitor of PRMT1, was added to columns 11, 12, 23, 24, rows I-P for the minimum signal control. A cocktail (40 ul) containing the PRMT1 enzyme was added by Multidrop Combi (Thermo-Fisher). The compounds were allowed to incubate with PRMT1 for 30 min at room temperature, then a cocktail (10 ul) containing SAM and peptide was added to initiate the reaction (final volume=51 ul). The final concentrations of the components were as follows: PRMT1 was 0.5 nM, ^3H-SAM was 200 nM, non-radiolabeled SAM was 1.5 uM, peptide was 20 nM, SAH in the minimum signal control wells was 1 mM, and the DMSO concentration was 2%. The assays were stopped by the addition of non-radiolabeled SAM (10 ul) to a final concentration of 300 uM, which dilutes the ^3H-SAM to a level where its incorporation into the peptide substrate is no longer detectable. 50 ul of the reaction in the 384-well polypropylene plate was then transferred to a 384-well Flashplate and the biotinylated peptides were allowed to bind to the streptavidin surface for at least 1 hour before being washed once with 0.1% Tween20 in a Biotek ELx405 plate washer. The plates were then read in a PerkinElmer TopCount plate reader to measure the quantity of ^3H-labeled peptide bound to the Flashplate surface, measured as disintegrations per minute (dpm) or alternatively, referred to as counts per minute (cpm).
Where dpm=disintegrations per minute, cmpd=signal in assay well, and min and max are the respective minimum and maximum signal controls. […]

T2 sequence (Q99873 with tags, fused parts or gaps): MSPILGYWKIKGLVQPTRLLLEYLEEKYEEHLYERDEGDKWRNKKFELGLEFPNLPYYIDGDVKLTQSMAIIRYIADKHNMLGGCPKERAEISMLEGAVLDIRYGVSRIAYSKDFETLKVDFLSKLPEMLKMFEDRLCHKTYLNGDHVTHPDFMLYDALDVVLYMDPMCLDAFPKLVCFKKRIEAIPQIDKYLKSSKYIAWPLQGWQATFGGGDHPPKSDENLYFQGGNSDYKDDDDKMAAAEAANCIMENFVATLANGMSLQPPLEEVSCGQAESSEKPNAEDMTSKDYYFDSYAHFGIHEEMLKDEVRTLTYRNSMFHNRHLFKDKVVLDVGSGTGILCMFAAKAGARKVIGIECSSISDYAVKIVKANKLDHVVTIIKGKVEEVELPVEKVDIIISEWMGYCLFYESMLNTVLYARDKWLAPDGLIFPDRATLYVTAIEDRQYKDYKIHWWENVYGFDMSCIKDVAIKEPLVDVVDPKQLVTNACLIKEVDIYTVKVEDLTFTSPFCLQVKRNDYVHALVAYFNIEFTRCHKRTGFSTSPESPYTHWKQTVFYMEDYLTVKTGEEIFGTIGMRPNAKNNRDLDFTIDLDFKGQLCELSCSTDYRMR

Row | IC50 ([1]; Homo sapiens, RKO) [µM] | IC50 (Human CARM1 (PRMT4)) [µM] | IC50 [1] [µM] | IC50 (human PRMT1) [µM] | Compound
1 | 1.4 | – | – | – | CNCCN(C)Cc1cccc(-c2cc(C(=O)NCc3cc(C)on3)c3cnn(C(C)C)c3n2)c1 [Compound 186]
2 | – | – | 2.25 | – | CNCCN(C)Cc1cccc(-c2cc(C(=O)NCc3cc(C)on3)c3cnn(C(C)C)c3n2)c1 [Compound 229]
3 | – | – | – | 0.101 | CNCCN(C)Cc1cccc(-c2cncc(C(=O)NCc3c(C)cc(C)[nH]c3=O)c2)c1 [Compound 375]
4 | – | – | – | 0.34 | Cc1cc(C)c(CNC(=O)c2cncc(-c3cccc(CN(C)CCN)c3)c2)c(=O)[nH]1 [Compound 380]

Second part, the compound before the results:

Row | Compound | IC50 ([1]; Homo sapiens, RKO) [µM] | IC50 (Human CARM1 (PRMT4)) [µM] | IC50 [1] [µM] | IC50 (human PRMT1) [µM]
5 | CC(C)n1ncc2c(C(=O)NCc3ccncc3)cc(-c3cccc(CN(C)CCN)c3)nc21 [Compound 172] | 3.14 | 0.00567 | – | –
6 | CCOC(=O)Nc1cc(-c2cccc(CN(C)CCN)c2)nc2c1cnn2C(C)C [Compound 173] | 3.31 | 0.00593 | – | –
7 | CN(CCN)Cc1cccc(-c2nc(NC3CCOCC3)c3cnn(C4CC4)c3n2)c1 [Compound 174] | 5.04 | 0.00611 | – | –
8 | CC(C)n1ncc2c(NC(=O)NC3CCOCC3)cc(-c3cccc(CN(C)CCN)c3)nc21 [Compound 175] | 11.5 | 0.00694 | – | –
